{"source": "patent US20030013643A1", "about": "“Prevention and treatment of streptococcal and staphylococcal infection” (priority 2000, published 2003)", "key": {"[1]": {"system": "GAS", "assay": "GAS attachment to murine keratinocyte cell line PAM2.12 with exogenous hyaluronic acid", "format": "cell-based, Streptococcus pyogenes", "method": "For bacterial adherence assays, keratinocytes were seeded at 10^5 cells per well in collagen-coated tissue culture wells (Nalge Nunc International, Naperville, Ill.), incubated for 3 days at 34° C. in 8% CO2, washed, and overlaid with medium containing 10^6 CFU of GAS per well. After incubation for 1 hour at 34° C. in 8% CO2 the keratinocyte monolayers were washed twice to remove nonadherent bacteria, then the number of cell-associated bacteria was determined by quantitative culture after releasing the keratinocytes with try spin and lysing them in sterile water, experiments testing the effects of exogenous hyaluronic acid on GAS adherence were performed using the mouse keratinocyte cell line, PAM 2.12 (Song, I. S. 2000, Exp. Dermatol. 9:42-52). Cells were seeded in collagen-coated tissue culture wells at 10^5 cells per well, cultured for 3 days at 37° C. in 5% CO2, then inoculated with 10^6 CFU of GAS per well in medium containing exogenous hyaluronic acid (from rooster comb, Sigma Chemicals, St. Louis, Mo.), no inhibitor, or a control polysaccharide, alginic acid, a high-molecular-weight polymer of mannuronic acid and guluronic acid (Protonal Durvillea Alginate, Pronova. Biopolymer, Inc., Portsmouth, N.H.). Cells were incubated for 45 minutes at 37° C. in 5% CO2, then processed for enumeration of adherent bacteria as described above. In experiments to test whether exogenous hyaluronic acid could promote dissociation of GAS attached to keratinocytes, GAS were allowed to attach to keratinocytes in the absence of inhibitor; after 45 minutes, the medium was removed and replaced with fresh medium containing hyaluronic acid, no inhibitor, or alginic acid. After 45 minutes of incubation, the number of adherent bacteria was enumerated as described above.\nTo investigate the specificity of the interaction between the GAS capsule and CD44 on epithelial cells, the ability of exogenous hyaluronic acid to compete with GAS for binding to murine keratinocytes was examined. Addition of exogenous hyaluronic acid to concentration 1 mg/ml[…], inhibited GAS attachment to the murine keratinocyte cell line PAM2.12 by >95% (P<0.03, FIG. 5). A concentration of 1 /ml alginic acid, another high molecular weight acidic polysaccharide, had no effect, supporting the hypothesis that adherence depends on a specific interaction between the GAS hyaluronic acid capsule and CD44 .\nIn addition to the 1 mg/ml concentration of hyaluronic acid, additional trials were performed as indicated above, with a range of concentrations of hyaluronic acid added to the cells. The concentrations tested included 4 mg/ml, 2 mg/ml, 1 mg/ml, 0.75 mg/ml, 0.5 mg/ml, 0.25 mg/ml and 0.1 mg/ml. The hyaluronic acid concentrations from 4 mg/ml to 0.25 mg/ml blocked GAS binding by greater than 70%. Hyaluronic acid concentrations from 4 mg/ml to 0.5 mg/ml blocked GAS binding by greater than 80% (FIG. 6)."}, "[2]": {"system": "Streptococcus pneumoniae (S. pneumo, type 6)", "assay": "Bacterial binding to human keratinocyte monolayers, S. pneumoniae", "format": "cell-based", "settings": "1 mg/ml pre-incubation; multiplicity of infection 10; 1 hour", "method": "Keratinocyte monolayers were prepared as descibed above in Methods section and pre-incubated with 1 mg/ml alginate (AL, solid bars) or 1 mg/ml hyaluronic acid (HA, hatched bars) prior to surface inoculation (as described above in Methods) with either Group A Streptococcus (GAS, strain 950771), Group B Streptococcus (GBS, strain 515), Streptococcus pneumoniae (S. pneumo, type 6), or Staphylococcus aureus (S. aureus, type 8) at a multiplicity of infection of 10 bacteria per keratinocyte for 1 hour."}}, "data": [{"substance": "hyaluronic acid", "values": [{"measurement": "reduction in bacterial attachment", "setting": "[1]; added up to 45 minutes after adding GAS to the keratinocytes, P<0.03", "result": "> 90", "unit": "%"}, {"measurement": "reduction of GAS attachment", "setting": "[1]; addition delayed for 2 hours, P<0.03", "result": "70-80%"}, {"measurement": "blocking of GAS binding", "setting": "[1]; concentrations from 4 mg/ml to 0.25 mg/ml", "result": "greater than 70%"}, {"measurement": "blocking of GAS binding", "setting": "[1]; concentrations from 4 mg/ml to 0.5 mg/ml", "result": "greater than 80%"}, {"measurement": "inhibition of GAS attachment to PAM2.12", "setting": "[1]; hyaluronic acid 1 mg/ml added with GAS, P<0.03", "result": "> 95", "unit": "%"}, {"measurement": "inhibition of binding", "setting": "[2]", "result": "more than 80%"}]}]}
